# Source: patent publication US6017933A, “Mannich bases of conjugated styryl ketones” (University of Saskatchewan Technologies Inc., priority 1999, dated 2000)
# “Also recorded” adds a separate entry of the source. Like-named read-outs stand apart in the source and are kept apart here.
# Tests used:
# [1] = system: P388 lymphocytic leukemia; settings: 20 mg/kg intraperitoneally for five days; cited from earlier work
# [2] = system: ITZ-resistant Aspergillus fumigatus; experiment: MIC and MLC, ITZ-resistant Aspergillus fumigatus, broth macrodilution; settings: 48 h
# Candida albicans = settings: C. albicans; cited from earlier work
# Aspergillus fumigatus [3] = experiment: MIC and MLC, Aspergillus fumigatus, broth macrodilution; settings: Aspergillus fumigatus, 48 h
# [4] = system: Aspergillus fumigatus conidia; experiment: Kill-curve experiment, Aspergillus fumigatus conidia; type: cell-based; settings: Aspergillus fumigatus; 5 μm AMB or 5 μm ITZ, within 24 hr
# Method: Kill-Curve Experiment: 5 ml conidial suspension each of the AMB-, and ITZ-susceptible (W73355) and the resistant (AB16.4 and ITZ70) isolates prepared in PYG broth (1×10^6 conidia/ml) was incubated at 35° C. in the presence of 5 μm of AMB or 5 μm ITZ or 50 μm Compound 9b. At various time intervals, 0.1 ml aliquots of the conidial suspension were removed, diluted appropriately to obtain 10^2 to 10^4 fold dilution, and 0.1 ml aliquots were spread in duplicate on PYG agar plates. […] Identical treatment of the conidial suspension in the absence of the drug was used as the growth control.
# Aspergillus fumigatus [5] = experiment: Murine pulmonary aspergillosis model; type: in vivo, Aspergillus fumigatus in DBA/2J female mice; settings: 2 mg/kg/day
# Method: In vivo susceptibility studies: DBA/2J female mice (Jackson Laboratories) weighing 20-23 grams (≈6 weeks old) were used. The mice were immunosuppressed by 3 consecutive subcutaneous injections (0.5 ml each) of cortisone acetate (250 mg/kg; Sigma Chemical Company) in sterile distilled water containing 0.1% Tween 80. The immunosuppressed mice were anesthetized by exposing to ether in a desiccator for 45±5 seconds and infected with 20 μl inoculum containing 1×10^6 conidia delivered to the nares of the animals as a single droplet from a micropipet. Compound 9b and AMB were dissolved in dimethyl sulfoxide (DMSO) and administered 24 hr post infection by intraperitoneal injection in 0.2 ml PBS per dose. […] The efficacy of chemotherapy was assessed by determining percent survival and the fungal load (CFU/lungs) of infected animals as determined by semiquantitative organ culture.
# [6] = system: AMB-resistant Aspergillus fumigatus; experiment: MIC and MLC, AMB-resistant Aspergillus fumigatus, broth macrodilution; settings: 48 h
# human tumors [7] = experiment: Cytotoxicity, human tumor cell line panel (approximately 55 lines); settings: for IC50: read-out: human tumors IC50, mean graph midpoint, approximately 55 cell lines, hydrobromide salts used for 4a, 11a-e
# COLO 205 [8] = experiment: COLO 205 human colon tumor xenograft in athymic mice; type: in vivo; settings: COLO 205; 16.8 mg/kg
# Method: (§1) The compounds were examined by the Developmental Therapeutics Program, National Cancer Institute, U.S.A. The murine P388 lymphocytic leukemia assay was conducted by a reported known method and the maximum ILS figures for 9d and 10a were 5 and 20% respectively using doses of 54 and 6.7 mg/kg respectively. An increase of 20% or more in the life spans is considered to be statistically significant. A reference drug 5-fluorouracil has an ILS of >35 using a dose of 20 mg/kg when given intraperitoneally for five days. Passage of human tumors in athymic mice was undertaken by a known method. No definitions of activity are available but as a general rule compounds causing a 60% reduction in tumor weights in one of these screens would be evaluated further.
# P388 cells = experiment: Cytotoxicity, murine P388 leukemic cells (P388 D1); settings: for IC50: read-out: P388 cells IC50; for cytotoxicity compared with compound 9d: Table 3 screens
# KM12 = KM12 human colon tumor xenograft in athymic mice; type: in vivo
# Method: as §1
# CAKI-1 [9] = experiment: CAKI-1 human renal tumor xenograft in athymic mice; type: in vivo; settings: 16.8 mg/kg
# Method: as §1
# [10] = system: P388 lymphocytic leukemia; experiment: Murine P388 lymphocytic leukemia in vivo screen
# Method: In order to evaluate whether these promising results could be translated into in vivo activity, two representative compounds 9d and 10a were chosen. […] These two compounds were examined in the murine P388 screen and against certain human tumors in athymic mice.
# as §1
# CEM cells = experiment: Cytotoxicity, CEM human T-lymphocytes; settings: for IC50: Homo sapiens, CCRF-CEM, read-out: CEM cells IC50; for TIL1210 (CEM cells): IC50 T-lymphocytes (CEM)/IC50 L1210; for TIP388 (CEM cells): IC50 T-lymphocytes (CEM)/IC50 P388; for TIht (CEM cells): IC50 T-lymphocytes (CEM)/IC50 human tumors
# human tumors [11] = system: human tumors
# L1210 cells = experiment: Cytotoxicity, murine L1210 leukemic cells; type: cell-based; settings: Mus musculus, mean
# Molt 4/C8 cells = experiment: Cytotoxicity, Molt 4/C8 human T-lymphocytes; settings: for TIL1210 (Molt 4/C8 cells): IC50 T-lymphocytes (Molt 4/C8)/IC50 L1210; for TIP388 (Molt 4/C8 cells): IC50 T-lymphocytes (Molt 4/C8)/IC50 P388; for TIht (Molt 4/C8 cells): IC50 T-lymphocytes (Molt 4/C8)/IC50 human tumors; for IC50: read-out: Molt 4/C8 cells IC50
# NCI-H522 = settings: in vivo; cited from earlier work
# LOX IMVI = settings: in vivo; cited from earlier work
# COLO 205 [12] = settings: in vivo; cited from earlier work
# CAKI-1 [13] = settings: in vivo; cited from earlier work
# SW-620 = settings: in vivo; cited from earlier work
# human Jurkat T cells [14] = experiment: Growth inhibition of Jurkat T cells, trypan blue exclusion test; type: cell-based; settings: 48 h, read-out: growth of Jurkat T cells inhibited by 50% (IC50)
# Method: All cell cultures used were maintained in RPMI 1640 medium, pH 7.4 supplanted with 10% fetal bovine serum and 50 μg/ml of gentamycin in 25 ml culture flasks at 37° C. in a humidified gas mixture of 5% carbon dioxide balanced with air and were passaged three times a week.
# Cell viability was determined by the trypan blue exclusion test according to a literature procedure (Duke and Cohen, 1992). […] A flask containing ~10^6 cells/ml and 8 or […] of DMSO was used as the control. […] After 48 hours, cells were counted using a haemocytometer. The percentage of growth inhibition was calculated as follows: (C-T/C)×100 where C is the mean cell number in the control and T is the mean cell number in each treatment. […] All experiments were performed in triplicate.
# human Jurkat T cells [15] = experiment: DNA fragmentation by agarose gel electrophoresis; type: cell-based; settings: Compound 9d 6 and 10 μM; melphalan 10 μM
# human Jurkat T cells [16] = experiment: Apoptosis, fluorescence microscopy with acridine orange and ethidium bromide
smiles,measurement,setting,value
O=c1[nH]cc(F)c(=O)[nH]1 [5-fluorouracil],"ILS, murine P388 (reference drug)",[1],> 35
C[C@@H]1[C@H](O)[C@@H](C)/C=C/C=C/C=C/C=C/C=C/C=C/C=C/[C@H](O[C@@H]2O[C@H](C)[C@@H](O)[C@H](N)[C@@H]2O)C[C@@H]2O[C@](O)(C[C@@H](O)C[C@@H](O)[C@H](O)CC[C@@H](O)C[C@@H](O)CC(=O)O[C@H]1C)C[C@H](O)[C@H]2C(=O)O [Amphotericin B],MIC,[2]; read-out: MIC Mean ± SD,0.7 ± 0.39 µM
same,MIC,[2]; read-out: MIC Range,0.27 to 1.11 µM
same,mean MIC,Candida albicans,~0.6 μm
same,MIC,Aspergillus fumigatus [3]; read-out: MIC Mean ± SD,1.32 ± 0.63 µM
same,MIC,Aspergillus fumigatus [3]; read-out: MIC Range,0.55 to 2.22 µM
same,killing at 5 µM,[4],≥ 99%
same,reduction of CFU/lung,Aspergillus fumigatus [5],≈ 66%
same,MIC,[6]; read-out: MIC Mean ± SD,6.64 ± 3.47 µM
same,MIC,[6]; read-out: MIC Range,4.42 to 17.7 µM
CC[N+]1(C)CCC(O)(/C=C/c2ccccc2)C(C(=O)/C=C/c2ccccc2)C1 (stereo not shown) [Compound 10a],Selective toxicity towards leukemia,human tumors [7]; human tumor screen,Selective toxicity towards leukemia was observed; also recorded: preferential cytotoxicity to colon and leukemic cells respectively
same,IC50,human tumors [7],8.31 µM
same,% ILS,COLO 205 [8],14%
same,percent reduction in median tumor weight,COLO 205 [8],20%
same,IC50,P388 cells,2.27 µM
same,% T/C,KM12; 16.8 mg/kg,45%
same,% ILS,KM12; 25 mg/kg,5%
same,% ILS,CAKI-1 [9],6%
same,% T/C,CAKI-1 [9],43%
same,"maximum ILS / increase in life span, murine P388",[10]; 6.7 mg/kg,20%
same,activity in the murine P388 screen,[10]; in words,marginal potency
CC[N+]1(C)CCC(O)(/C=C/c2ccc(Cl)c(Cl)c2)C(C(=O)/C=C/c2ccc(Cl)c(Cl)c2)C1 (stereo not shown) [Compound 10c],IC50,CEM cells,16.5 µM
same,TIL1210 (CEM cells),CEM cells,0.77
same,TIP388 (CEM cells),CEM cells,25.78
same,TIht (CEM cells),CEM cells,7.53
same,IC50,human tumors [7],2.19 µM
same,"activity relative to compound 12c, human tumors",human tumors [11],4.36 times
same,IC50,L1210 cells,21.4 µM
same,IC50,P388 cells,0.64 µM
same,TIL1210 (Molt 4/C8 cells),Molt 4/C8 cells,1.12
same,TIP388 (Molt 4/C8 cells),Molt 4/C8 cells,37.56
same,TIht (Molt 4/C8 cells),Molt 4/C8 cells,10.98
same,IC50,Molt 4/C8 cells,24 µM
CCN1CCC(O)(/C=C/c2cccc(C)c2)C(C(=O)/C=C/c2cccc(C)c2)C1 (stereo not shown) [Compound 13a],IC50,CEM cells,9.23 µM
same,TIL1210 (CEM cells),CEM cells,0.73
same,TIP388 (CEM cells),CEM cells,4.89
same,TIht (CEM cells),CEM cells,3.75
same,selective/preferential cytotoxicity towards colon cancer cells,human tumors [7]; human tumor screen,"neither 13a,b displayed selective toxicity for colon cancers"
same,IC50,human tumors [7],2.46 µM
same,IC50,L1210 cells,12.6 µM
same,cytotoxicity compared with compound 9d,P388 cells,comparable cytotoxicity to compound 9d
same,IC50,P388 cells,1.89 µM
same,TI (murine leukemia cells vs T-lymphocytes; printed TIht) compared with compound d,Molt 4/C8 cells,lower
same,TIht compared with compound 9d,Molt 4/C8 cells,greater than compound 9d
same,TIL1210 (Molt 4/C8 cells),Molt 4/C8 cells,1.14
same,TIP388 (Molt 4/C8 cells),Molt 4/C8 cells,7.57
same,TIht (Molt 4/C8 cells),Molt 4/C8 cells,5.81
same,IC50,Molt 4/C8 cells,14.3 ± 9.1 µM
CCN1CCC(O)(/C=C/c2ccc(C)c(C)c2)C(C(=O)/C=C/c2ccc(C)c(C)c2)C1 (stereo not shown) [Compound 13b],IC50,CEM cells,30.8 µM
same,TIL1210 (CEM cells),CEM cells,1.47
same,TIP388 (CEM cells),CEM cells,11.89
same,selective/preferential cytotoxicity towards colon cancer cells,human tumors [7]; human tumor screen,"neither 13a,b displayed selective toxicity for colon cancers"
same,IC50,L1210 cells,20.9 µM
same,cytotoxicity compared with compound 9d,P388 cells,comparable cytotoxicity to compound 9d
same,IC50,P388 cells,2.59 µM
same,TI (murine leukemia cells vs T-lymphocytes; printed TIht) compared with compound d,Molt 4/C8 cells,lower
same,TIht compared with compound 9d,Molt 4/C8 cells,greater than compound 9d
same,TIL1210 (Molt 4/C8 cells),Molt 4/C8 cells,0.67
same,TIP388 (Molt 4/C8 cells),Molt 4/C8 cells,5.41
same,IC50,Molt 4/C8 cells,14 ± 8.6 µM
CCC(C)n1ncn(-c2ccc(N3CCN(c4ccc(OCC5COC(Cn6cncn6)(c6ccc(Cl)cc6Cl)O5)cc4)CC3)cc2)c1=O (stereo not shown) [Itraconazole],MIC,[2]; read-out: MIC Mean ± SD,17.2 ± 5.83 µM
same,MIC,[2]; read-out: MIC Range,5.19 to 20.8 µM
same,MIC,Aspergillus fumigatus [3]; read-out: MIC Mean ± SD,0.53 ± 0.16 µM
same,MIC,Aspergillus fumigatus [3]; read-out: MIC Range,0.18 to 0.72 µM
same,killing at 5 µM,[4],85%
same,MIC,[6]; read-out: MIC Mean ± SD,0.82 ± 0.35 µM
same,MIC,[6]; read-out: MIC Range,0.32 to 1.29 µM
O=P1(N(CCCl)CCCl)NCCCO1 (stereo not shown) [cyclophosphamide],activity towards NCI-H522 xenograft,NCI-H522,inactive
same,reduction of growth of LOX IMVI tumor,LOX IMVI,100-150%
same,activity towards COLO 205 xenograft,COLO 205 [12],inactive
same,reduction of growth of CAKI-1 tumor,CAKI-1 [13],60-100%
same,activity towards SW-620 xenograft,SW-620,inactive
OC(Cn1cncn1)(Cn1cncn1)c1ccc(F)cc1F [fluconazole],mean MIC,Candida albicans,approximately 0.8 μm
"N[C@@H](Cc1ccc(N(CCCl)CCCl)cc1)C(=O)O [melphalan, reference compound]",TIL1210 (CEM cells),CEM cells,1.16
same,TIP388 (CEM cells),CEM cells,11.23
same,TIht (CEM cells),CEM cells,0.09
same,IC50,human Jurkat T cells [14],1.16 µM
same,IC50,human tumors [7],26.3 µM
same,DNA ladder / DNA fragmentation,human Jurkat T cells [15],A faint DNA ladder could be seen
same,time after which apoptotic effects were detectable,human Jurkat T cells [16],3 h
same,percentage of apoptotic cells,"human Jurkat T cells [16]; 10 μM, 17 hours, control 4.4%",24%
same,death of treated cells,human Jurkat T cells [16]; 48 hours,all the treated cells had died
